Bounds are passed on as bounds.

Data set [1] can be described thus: Acute toxicity test by a single administration. Type of data set: in vivo. The following applies: mouse, in vivo, 10 mg/kg; intravenous, single administration, mice. The source says:
(§1) The compound of Example 1 was intravenously administered to mice.

Another data set deals with mice. The experiment in a line: Acute toxicity test by a single administration. The following applies: intravenous, 10 mg/kg. The data set is classed as in vivo.
Description: as §1

Data set [2] concerns C57BL/6 mice with MOG-induced EAE. As to the kind of experiment: Suppression of the onset of experimental autoimmune encephalomyelitis (EAE). As to conditions: 20 μg/kg i.p. on days 1, 5, 8, 12 and 15, FIG. 6B. Type of data set: in vivo, mouse. The method, then: […]. Mice were immunized by subcutaneously injecting this emulsion on day 0 and day 7. Further, 500 ng of pertussis toxin were intraperitoneally administered on day 1 and […] induce experimental autoimmune encephalomyelitis (EAE) in mice. The animals were divided into 2 groups, i.e., a group to which 20 μg/kg of KRN 7000 were intraperitoneally administered on days 1, 5, 8, 12 and 15 and a group to which a vehicle (0.5%, Polysolvate 20) was administered in a similar manner. The level of EAE symptoms was observed every day.

Data set [3] has as its system mouse lymphoma YAC-1 cells. The experiment in a line: Cytotoxic activity of spleen NKT cells against tumor cells (4 hour 51Cr-release) after i.v. administration to RAG-1KO/Vα14tg/Vβ8.2tg mice. Type of data set: in vivo. As to conditions: 100 μg/kg i.v., spleen taken 24 hours later, FIG. 1. The procedure:
A vehicle (physiological saline containing 0.025% Polysolvate 20) or 100 μg/kg of KRN 7000 was intravenously administered to RAG-1KO/Vα14tg/Vβ8.2tg mice (bearing a large number of NKT cells but not B cells, T cells or NK cells in their lymphocyte fraction), and 24 hours later, the spleen was taken out from each mouse to prepare spleen cells by conventional methods. RAG-1KO/Vαl14tg/Vβ8.2tg mice were established by deletion of the RAG-1 gene and forcible expression of Vα14 and Vβ8.2 gene (Kawano T. et al., Science, 278, 1626-1629 (1997)). Thesemice are available from Masaru Taniguchi, School of Medicine, Chiba University. Cytotoxic activity of these spleen cells to mouse lymphoma YAC-1 cells was studied by the 4 hour-^51Cr-release method (Kobayashi, E. et al., Oncology Res., 7, 529 ([…])).

For the next data set, the system named is MRL lpr/lpr mice. As to the kind of experiment: Survival period of MRL lpr/lpr mice. The data set is classed as in vivo, mouse. The following applies: 100 μg/kg i.p. twice a week from the age of 5 weeks, 10 animals per group; all vehicle mice died within 250 days, FIG. 4. The procedure: Ten animals per group of female MRL lpr/lpr mice were used for the following experiment. MLR mice purchased at the age of 4 weeks were randomly divided into 2 groups (10 animals per group). A vehicle (a physiological saline solution containing 0.025% Polysolvate 20) or KRN 7000 (100 μg/kg) was intraperitoneally administered twice a week (on Tuesday and Friday) to the animals starting from the age of 5 weeks. Survival of the animals was observed every day.

Data set [4] relates to spleen cells of RAG-1KO/Vα14tg/Vβ8.2tg mice (NKT cells). As to the kind of experiment: Stimulation of NKT cell proliferation, [3H]thymidine incorporation in spleen cells. The data set is classed as cell-based, mouse. As to conditions: 2 days incubation. The method, then:
Stimulation of NKT cell proliferation by compounds having an α-glycosylceramide structure was studied using spleen cells of RAG-1KO/Vα14tg/Vβ8.2tg mice shown in Pharmacological Test Example 1.
Spleen cells were prepared from the spleen of RAG-1KO/Vα14tg/Vβ8.2tg mice by conventional methods. These spleen cells were suspended at 2×10^6 cells/ml in an RPMI 1640 medium supplemented with 10% FCS, and 100 μl each of the suspension were plated into wells of 96-well round-bottomed plates. Ten different kinds of compounds having an α-glycosylceramide structure shown in FIG. 12 were added to the wells of the plates at a final concentration of 1, 10 or 100 ng/ml, and the plates were incubated for 2 days. Sixteen hours after the addition of [^3H] thymidine (0.5 μCi/well), the cells were harvested. The amount of [^3H] thymidine incorporated into the cells was measured by a liquid scintillation counter.

The test system of another data set is pregnant C57BL/6 mice. The experiment in a line: Induction of abortion in pregnant C57BL/6 mice. Type of data set: in vivo, mouse. The procedure:
C57BL/6 mice (Japan SLC) were used for the following experiment. The day when a vaginal plug was observed was defined as day 0. Pregnant mice were divided into 2 groups (6 mice per group), i.e., one group to which 150 μg/kg of KRN 7000 were intravenously administered on days 7, 8 and 9, and another to which PBS (phosphate-buffered saline) was administered in the same way. On day 12, the uterus was removed to observe the state of the embryo.

Regarding `CCCCCCCCCCCCCCCCCCCCCCCCCC(=O)N[C@@H](CO[C@H]1O[C@H](CO)[C@H](O)[C@H](O)[C@H]1O)[C@H](O)[C@H](O)CCCCCCCCCCCCCC` [KRN 7000, (2S,3S,4R)-1-(α-D-galactopyranosyloxy)-2-hexacosanoylamino-3,4-octadecanediol], in data set [1], the 50% lethal dose (LD50) (commonly the dose expected to kill half of the subjects tested) is more than 10 mg/kg. In addition, in the data set with mice, the toxicity symptoms entry is “no particular symptom”. In addition, the “mice that died of EAE” value in data set [2] (10 mice, vehicle: 80% died) was found to be 2. In addition, the “mice showing the EAE onset” value in data set [2] (vehicle: all mice) was 4 out of 10. In addition, the “cytotoxic activity against YAC-1 cells of spleen cells vs vehicle-administered mice” value in data set [3] is “significantly higher”. For the same molecule, the “mice surviving at 350 days after the start of the administration” value with MRL lpr/lpr mice is recorded as “three mice”. In addition, the “[3H] Thymidine incorporation (cpm)” value came to 40064 cpm in data set [4] (1 ng/ml, vehicle 2090); 74669 cpm in data set [4] (10 ng/ml, vehicle 2056); 102543 cpm in data set [4] (100 ng/ml, vehicle 2014). Besides, the “embryos dead and resorbed” value in the data set with pregnant C57BL/6 mice (150 μg/kg i.v. on days 7, 8 and 9, uterus on day 12, of the total of 36 embryos) came out at 12. The abortion rate in the data set on pregnant C57BL/6 mice (150 μg/kg i.v. on days 7, 8 and 9, PBS group 5.6%) came to 33%.

The record behind these values is patent US6531453B1, “NKT cell activators containing α-glycosylceramides” (Kirin Beera Kabushiki Kaisha, priority 1997, dated 2003).
